This note sets out measurements from US12161641B2, “Treatments and prevention of opioid neonatal abstinence syndrome” (Ohio State Innovation Foundation, priority 2016, dated 2024).

SMILES strings stand for the structures.

The nature of this series: Time-course of drug levels in adult and embryonic mouse plasma, brain and liver after a single subcutaneous injection (LC-MS/MS). To be noted: mouse, 10 mg/kg.
[1] abbreviates: female, brain (adult), subcutaneous.
The mark [2] stands for this setting: female, liver (adult), subcutaneous.

For the compound `O=C1CC[C@@]2(O)[C@H]3Cc4ccc(O)c5c4[C@@]2(CCN3CC2CC2)[C@H]1O5` [Naltrexone, naltrexone, reference compound], the concentration at 20 min under setting [1] amounted to 3230 ng/g; the concentration at 20 min (female, in vivo) was 1880 ng/g; the concentration at 20 min under setting [2] was determined as 2100 ng/g. For the same compound, the concentration at 45 min runs as follows: under setting [1], 1470 ng/g; (female, in vivo) 620 ng/g; under setting [2], 1390 ng/g; (embryo brain, subcutaneous) 2610 ng/g; (embryo liver, subcutaneous) 3190 ng/g. Moreover, the concentration at 2 h by setting is: under setting [1], 250 ng/g; (female, in vivo) 130 ng/g; under setting [2], 360 ng/g; (embryo brain, subcutaneous) 500 ng/g; (embryo liver, subcutaneous) 620 ng/g. Besides, the concentration at 4 h runs as follows: under setting [1], 18 ng/g; (female, in vivo) 4 ng/g; under setting [2], 32 ng/g.
